# Values quoted from earlier work in patent US20240350678A1, “SYSTEMS AND METHODS FOR GENERATION OF HYPERPOLARIZED MATERIALS” (NVISION IMAGING TECHNOLOGIES GMBH, priority 2021, published 2024).
# Read-outs that look alike come from different tables or passages of the source.
smiles,measurement,setting,value
CC(=O)O [acetic acid],maximal mole fraction of acetic acid in n-heptane,at 14.8° C.,0.935
same,maximal mole fraction of acetic acid in n-heptane,at −29.2° C.,0.02
